Marks after values point to notes of the source that are not given here.
What was measured:
[1] = tested on: patients with MS (detrusor hyperreflexia); test: separate study: RTX instillation in patients with MS; assay type: in vivo, human; parameters: LVA Lost volume after RTX / CAPA Capacity after RTX: unit not given here
[2] = tested on: patients having bladder hyperactivity; test: 14-patient study: single intravesical RTX instillation; fill cystometry (MCC), urination diary; assay type: in vivo, human; conditions: for Bladder Capacity, % Change / Bladder Capacity, Change from Pre-RTX: Bladder Capacity <200 mL; for Bladder Capacity, % Change / Bladder Capacity, Change from Pre-RTX / Bladder Capacity: n 7; for Mean Incontinent Episodes/day, % Change / Mean Incontinent Episodes/day, Difference from Pre-RTX / Mean Incontinent Episodes/day: n = 8; for Mean incontinent episodes: Pre-RTX 2.1; for Mean bladder capacity: Pre-RTX 182; for Bladder Capacity: patients with Bladder Capacity <200 mL, Pre-RTX 86; for Mean Incontinent Episodes/day: Pre-RTX 3.6
Source text: Clinical studies reported herein include the following: observations from the patient's urination diary and their overall assessment of bladder function, maximum cystometric capacity of the bladder, and daily urinary frequency and incontinence episodes. […] Useful and effective treatment is that which alleviates any of the symptoms associated with neurogenic urinary dysfunction.
Patients chosen for study were of either sex, between the ages of 30 and 75, and weighing between 60 kg and 110 kg. Patients were selected having bladder hyperactivity associated with spinal cord injury, multiple sclerosis, peripheral neuropathy, muscular dystrophy or bladder instability. Pregnant women were excluded from the study as were those exposed to any other investigational drug within 30 days of baseline, those exposed to drugs affecting bladder performance or detrusor function within 10 days of baseline, those with known chemical addiction, those with seizure activity or major psychiatric disorders, and those with clinically significant cardiovascular, renal or hepatic disease, upper respiratory disease, malignant disease or clinically significant abnormal clinical laboratory values. Patients taking anti-cholinergic drugs were generally excluded except in a rare instance at the discretion of the investigator, in which case the dosage of anti-cholinergic drug was not changed during the study. Patients previously treated with capsaicin were first monitored to insure a return to baseline parameters in the absence of capsaicin. Preliminary studies to determine RTX dosage efficacy were performed with patients who had previous experience with intravesical capsaicin administration for treatment of bladder hyperactivity. Once a dose range for the study was determined, both previously capsaicin-treated and -untreated patients were employed.
The molecular weight of RTX is 628.72 for the clinical studies described herein. A 10 μM stock solution, 6.3 μg/mL was prepared by dissolving 6.32 mg of 99.5% pure RTX in 1000 mL absolute ethanol. Solutions for therapeutic use were diluted from the ethanolic stock solution into sterile normal saline (0.9% w/v NaCl) or a saline-ethanol mixture such that the final solution was 10% (v/v) ethanol. Therapeutic efficacy was tested for RTX concentrations of 1 μM, 0.1 μM and 0.05 μM. […] Prior to administration, RTX solutions were sterilized by filtration.
Fill cystometry: A two-way 8 F urethral catheter was inserted in the bladder under clean conditions. The residual urine was emptied. Infusion of saline at body temperature was started at a constant speed of […]. Patients were asked to indicate the moment of first desire to void (FDV) and any other sensation. The infusion was stopped at compulsive desire to void and the infused volume taken as the maximal cystometric capacity (MCC). Bladder pressure at which MCC occurs was also recorded. A prophylactic antibiotic (ciprofloxacin, 500 mg every 8 hours) was given during the next 48 hours.
Ice-Water test: The patient was clean catheterized with a two-way urethral catheter. A volume of 50 ml of iced saline (or half of the MCC found in cystometry) was put in a catheter-irrigating syringe and injected into the bladder during a period of 20 seconds. Bladder pressure was constantly measured. The test was considered positive (abnormal) if an involuntary bladder contraction was recorded during the next 60 seconds.
RTX Instillation: An 18 or 20 F three-way Foley catheter was used. The balloon was inflated to 20 ml and maintained gently pulled against the bladder neck to reduce leakage of RTX.
Up to 100 mL RTX solution was introduced into an emptied bladder, retained in the bladder for 30 minutes, then the bladder was emptied and rinsed with normal saline. Prior to treatment, baseline measurements of MCC, micturition frequency and ice water test response made. […]
Patients 1, 2, 6, 7, 8 and 13 received 0.05 μM RTX. The rest received 0.1 μM RTX. […]

[3] = day 14, Frequency ≧ 10/day, n = 7
[4] = day 14, Incontinence > episode/day
[5] = day 14, intent-to-treat, n = 14
[6] = day 30, Frequency ≧ 10/day, n = 7
[7] = day 30, Incontinence > episode/day
[8] = day 30, intent-to-treat, n = 14
[9] = day 60, Frequency ≧ 10/day, n = 7
[10] = day 60, Incontinence > episode/day
[11] = day 60, intent-to-treat, n = 14
[12] = day 90, Frequency ≧ 10/day, n = 7
[13] = day 90, Incontinence > episode/day
[14] = day 90, intent-to-treat, n = 14
[15] = patients able to do spontaneous micturitions

SMILES: C=C(C)[C@]12C[C@@H](C)[C@@]34O[C@](Cc5ccccc5)(O[C@@H]1[C@@H]3C=C(COC(=O)Cc1ccc(O)c(OC)c1)C[C@]1(O)C(=O)C(C)=C[C@@H]41)O2 [RTX, resiniferatoxin]
- CAPA Capacity after RTX ([1]; Patient 6, Dose 500 nM, one month after treatment, CAPB before RTX 200): 360
- DA Drug after RTX ([1]; Patient 6, Dose 500 nM, one month after treatment, DB before RTX 2): 01
- LVA Lost volume after RTX ([1]; Patient 6, Dose 500 nM, one month after treatment, LVB before RTX 60): 10
- ULPA Urine loss pressure after RTX ([1]; Patient 6, Dose 500 nM, one month after treatment, ULPB before RTX 96): 40
- LVA Lost volume after RTX ([1]; Patient 7 (stress incontinent), Dose 500 nM, one month after treatment, LVB 100): 80*
- CAPA Capacity after RTX ([1]; Patient 7, Dose 500 nM, one month after treatment, CAPB 180): 750
- DA Drug after RTX ([1]; Patient 7, Dose 500 nM, one month after treatment, DB 2): 1
- ULPA Urine loss pressure after RTX ([1]; Patient 7, Dose 500 nM, one month after treatment, ULPB 63): 36
- CAPA Capacity after RTX ([1]; Patient 9, Dose 1000 nM, one month after treatment, CAPB 100): 300
- DA Drug after RTX ([1]; Patient 9, Dose 1000 nM, one month after treatment, DB 2): 2
- LVA Lost volume after RTX ([1]; Patient 9, Dose 1000 nM, one month after treatment, LVB 180): 0
- ULPA Urine loss pressure after RTX ([1]; Patient 9, Dose 1000 nM, one month after treatment, ULPB 32): 30
- CAPA Capacity after RTX ([1]; Patient 10, Dose 1000 nM, one month after treatment, CAPB 280): 460
- DA Drug after RTX ([1]; Patient 10, Dose 1000 nM, one month after treatment, DB 2): 2
- LVA Lost volume after RTX ([1]; Patient 10, Dose 1000 nM, one month after treatment, LVB 180): 0
- ULPA Urine loss pressure after RTX ([1]; Patient 10, Dose 1000 nM, one month after treatment, ULPB 46): 44
- urge and leakage around indwelling catheter ([1]; bedridden MS patient, 100 ml of 1 μM solution, six weeks): no urge and no leakage
- Urinary loss ([1]; four MS patients, one month after treatment): decreased after instillation of RTX in all four patients
- patients with meaningful effects, decreases in frequency, urge or wetness ([2]; 14-patient study): 71%
- MCC ([2]; Patient #10 (spinal cord injury), 100 μM RTX instillation, day 14, Baseline MCC 80 ml): 500 mL
- leaks on the worst day ([2]; Patient #10, 100 μM RTX instillation, before treatment incontinence episodes more than 7 times per day): 2-3 times per day
- incontinence episodes, Case #11 ([2]; after RTX (0.1 μM), no improvement during placebo): substantially decreased incontinence episodes
- symptoms evoked by RTX instillation ([2]; all patients, noted by a few patients during the first minutes of the treatment): itching or mild discomfort were the only symptoms evoked by RTX
- incontinence episodes, Case #7 ([2]; between days 14 and 30 post-treatment, 0.05 μM, prior: at least once between catheterizations): only one incontinence episode
- Bladder Capacity, % Change ([2]; day 14): +224%
- Bladder Capacity, Change from Pre-RTX ([2]; day 14): +193 mLs
- Mean Frequency/day, % Change [2, 3]: −34%
- Mean Frequency/day, Change from Pre-RTX [2, 3]: -5.3 day⁻¹
- Mean Incontinent Episodes/day, % Change [2, 4]: −44%
- Mean Incontinent Episodes/day, Difference from Pre-RTX [2, 4]: -1.6 day⁻¹
- Mean Frequency/day ([2]; day 14, intent-to-treat analysis, n = 14, Pre-RTX 9.1): 6.9 day⁻¹
- Mean Frequency/day, Difference from pre-RTX [2, 5]: -2.2 day⁻¹
- Mean bladder capacity, Difference from pre-RTX [2, 5]: 95 mL
- Mean incontinent episodes, Difference from pre-RTX [2, 5]: −1.0
- Mean incontinent episodes [2, 5]: 1.0
- Mean bladder capacity [2, 5]: 277 mL
- Bladder Capacity ([2]; day 14, single instillation 0.05 or 0.1 μM): 279 mLs
- Mean Frequency/day ([2]; day 14, patients with Frequency ≧ 10/day, n = 7, Pre-RTX 15.7): 10.4 day⁻¹
- Mean Incontinent Episodes/day ([2]; day 14, patients with Incontinence > episode/day): 2.0 day⁻¹
- Bladder Capacity, % Change ([2]; day 30): +156%
- Bladder Capacity, Change from Pre-RTX ([2]; day 30): +134 mLs
- Mean Frequency/day, % Change [2, 6]: −28%
- Mean Frequency/day, Change from Pre-RTX [2, 6]: -4.4 day⁻¹
- Mean Frequency/day ([2]; day 30, Frequency ≧ 10/day, n = 7, Pre-RTX 15.7): 11.3 day⁻¹
- Mean Incontinent Episodes/day, % Change [2, 7]: −64%
- Mean Incontinent Episodes/day, Difference from Pre-RTX [2, 7]: -2.3 day⁻¹
- Mean Incontinent Episodes/day [2, 7]: 1.3 day⁻¹
- Mean Frequency/day, Difference from pre-RTX [2, 8]: -1.6 day⁻¹
- Mean bladder capacity, Difference from pre-RTX [2, 8]: 64 mL
- Mean incontinent episodes, Difference from pre-RTX [2, 8]: −1.4
- Mean incontinent episodes [2, 8]: 0.7
- Mean Frequency/day ([2]; day 30, intent-to-treat, n = 14, Pre-RTX 9.1): 7.5 day⁻¹
- Mean bladder capacity [2, 8]: 247 mL
- Bladder Capacity ([2]; day 30): 220 mLs
- Bladder Capacity, % Change ([2]; day 60): +159%
- Bladder Capacity, Change from Pre-RTX ([2]; day 60): +137 mLs
- Mean Frequency/day, % Change [2, 9]: −34%
- Mean Frequency/day, Change from Pre-RTX [2, 9]: -5.3 day⁻¹
- Mean Frequency/day ([2]; day 60, Frequency ≧ 10/day, n = 7, Pre-RTX 15.7): 10.4 day⁻¹
- Mean Incontinent Episodes/day, % Change [2, 10]: −67%
- Mean Incontinent Episodes/day, Difference from Pre-RTX [2, 10]: -2.4 day⁻¹
- Mean Incontinent Episodes/day [2, 10]: 1.2 day⁻¹
- Mean Frequency/day, Difference from pre-RTX [2, 11]: -2.1 day⁻¹
- Mean bladder capacity, Difference from pre-RTX [2, 11]: 45 mL
- Mean incontinent episodes, Difference from pre-RTX [2, 11]: −1.7
- Mean incontinent episodes [2, 11]: 0.4
- Mean Frequency/day ([2]; day 60, intent-to-treat, n = 14, Pre-RTX 9.1): 7.0 day⁻¹
- Mean bladder capacity [2, 11]: 228 mL
- Bladder Capacity ([2]; day 60): 223 mLs
- Bladder Capacity, Change from Pre-RTX ([2]; day 90): +191 mLs
- Mean Frequency/day, % Change [2, 12]: −31%
- Mean Frequency/day, Change from Pre-RTX [2, 12]: -4.9 day⁻¹
- Mean Frequency/day ([2]; day 90, Frequency ≧ 10/day, n = 7, Pre-RTX 15.7): 10.8 day⁻¹
- Mean Incontinent Episodes/day, % Change [2, 13]: −58%
- Mean Incontinent Episodes/day, Difference from Pre-RTX [2, 13]: -2.1 day⁻¹
- Mean Incontinent Episodes/day [2, 13]: 1.5 day⁻¹
- Mean Frequency/day, Difference from pre-RTX [2, 14]: -2.6 day⁻¹
- Mean bladder capacity, Difference from pre-RTX [2, 14]: 148 mL
- Mean incontinent episodes, Difference from pre-RTX [2, 14]: −1.5
- Mean incontinent episodes [2, 14]: 0.6
- Mean Frequency/day ([2]; day 90, intent-to-treat, n = 14, Pre-RTX 9.1): 6.2 day⁻¹
- Mean bladder capacity [2, 14]: 330 mL
- Bladder Capacity ([2]; day 90): 277 mLs
- positive benefit on incontinent episodes ([2]; eight evaluable patients with more than one incontinent episode/day): only one did not show a positive benefit
- patients in whom bladder capacity (MCC) increased ([2]; out of the 14 patients): 11
- duration of decreased frequency post-treatment [2, 15]: up to 60 days
- improvement in MCC [2, 15]: All patients in the group but one (#1) showed clear improvement (increase) in MCC
- reported improvement after RTX administration ([2]; patients requiring self-catheterization or supra-pubic maneuvers (#4, 5, 7, 8 and 11)): all but one (#4) reported improvement
- full continence after RTX instillation ([2]; patients who were entirely incontinent (#3, 4, 6, 9, 12, 13 and 14)): five (#3, 6 and 9, 12 and 13) achieved full continence
- duration of effect of a single instillation ([2]; single instillation): up to 6 months

From patent publication US20040039052A1, “Urinary incontinence therapy” (priority 1997, published 2004)
